Laboratory results from US5922677A, “Therapeutic method and compounds of use therein” (Auckland UniServices Limited, priority 1994, dated 1999).
Structures can show the parent of a compound that is named as a salt. No end group written: not given here.

How the values were obtained:
[1] = system: osteoblast-like cells from fetal rat calvariae; assay: Numbers of osteoblast-like cells in culture; format: cell-based; conditions: for effect on cell number (osteoblast proliferation): growth-arrested cultures, 24 hours
Source text: Cells were either (a) growth-arrested as a result of being cultured in the presence of 0.1% bovine serum albumin or (b) were actively growing in culture medium containing 2% fetal calf serum. n=6 in each group. Data are mean ± sem. Statistical significance (by Student's test) of differences from control: *p≤0.05; **p<0.005; ***p<0.001.

[2] = system: osteoblast-like cells from fetal rat calvariae; assay: Numbers of osteoblast-like cells in culture; format: cell-based; conditions: for Osteoblast Numbers after 24 h culture: mean ± SD
calvariae of adult mice = assay: In vivo calvarial study, local injection over hemicalvaria, histomorphometry; conditions: 4.1×10^-9 mol daily for 5 days over right hemicalvaria
Source text: FIG. 4 Comparison of the in vivo effects of rat amylin, rat calcitonin (CT) and rat CGRP in adult mice. The daily dose of each peptide was 4.1×10^-9 mol. Data are expressed as the ratio of each index measured in the injected hemicalvaria to that measured in the contralateral, uninjected hemicalvaria. n=5 in each group. Data are mean ± sem. Significant differences (p<0.05) between the injected and uninjected hemicalvariae are indicated by asterisks.
The effects of the peptides on bone histology in vivo were assessed by subcutaneously injecting the peptide daily for 5 days over the periosteum of the right hemicalvaria of adult, male Swiss-Webster mice. The animals were sacrificed 1 week following the last injection. Non-decalcified sections of the calvariae were prepared as described previously, Cornish, J., Callon, K., King, A., Edgar, S., and Reid, I. R. (1993) Endocrinology 132, 1359-1366. Quantitative histomorphometry was performed by an operator blinded to the treatment each animal had received. Data are expressed as the ratio of each index measured in the injected hemicalvaria to that measured in the contralateral, uninjected hemicalvaria of the same animal and have been evaluated by paired t tests.

[3] = system: osteoblast-like cells from fetal rat calvariae; assay: Thymidine incorporation into osteoblast-like cells; format: cell-based; conditions: time-course (FIG. 3), medium with 0.1% bovine serum albumin
Protocol: FIG. 3 The effect of rat amylin on thymidine incorporation into osteoblast-like cells from fetal rat calvariae. Statistical significance of differences from control at each time-point: *p=0.002; **p<0.001. In both experiments the culture medium contained 0.1% bovine serum albumin. n=6 in each group. Data are mean ± sem.
Osteoblast-like cells were prepared by sequential collagenase digestion of calvariae from 20 day fetal rats, as described previously, Lowe, C., Cornish, J., Callon, K, Martin, T. J., and Reid, I. R. (1991) J. Bone Miner. Res. 6, 1277-1283.

mouse calvaria = assay: Systemic in vivo experiment, calvarial histomorphometry; set-up: species or system mice
Protocol: We have also conducted the following systemic in vivo experiment where amylin at a concentration of 10^-8 M is injected subcutaneously.
Calvarial Histomorphometry
11 mice in each treatment group.
Differences between control and amylin groups were statistically tested using an unpaired Student t test.
Measurements are recorded per mm calvarial length.

[4] = systemic test, summary in words
[5] = injected vs uninjected hemicalvaria

`O=C(O)C(F)(F)F` [TFA, trifluoroacetic acid] was tested, and the cell numbers ([1]; 4×10^-8 M, exposed for 24 hrs, control 5.6±0.3×10^4) was 4.2±0.3×10^4.

In the case of “Amylin, TFA Salt: amylin as trifluoroacetic acid salt, generally the tetra-TFA salt, as isolated by HPLC (KCNTATCATQRLANFLVHSSNNFGAILSSTNVGSNTY; not fully specified (C-terminus, bridges); cysteine pairing not given here; also: trifluoroacetate salt; UniProt P10997 34-70, looked up)”, the “Osteoblast Numbers after 24 h culture” value ([2]; 10^-8 M, control 4.6 ± 0.64) is reported as 5.6 ± 0.96 10^4 cells/well.

“Amylin, chloride salt: amylin salt prepared by dissolving peptide in 3 mM hydrochloric acid and freeze-drying (KCNTATCATQRLANFLVHSSNNFGAILSSTNVGSNTY; not fully specified (C-terminus, bridges); cysteine pairing not given here; also: chloride salt; UniProt P10997 34-70, looked up)” was tested, and the “Osteoblast Numbers after 24 h culture” value ([2]; 10^-8 M, control 4.6 ± 0.64) was 7.9 ± 1.00 10^4 cells/well.

“CGRP: rat calcitonin gene-related peptide-1, a peptide related to amylin (SCNTATCVTHRLAGLLSRSGGVVKDNFVPTNVGSEAF; not fully specified (C-terminus, bridges); cysteine pairing not given here; UniProt P01256 83-119, looked up)” was tested, and the “effect on cell number (osteoblast proliferation)” value (from here on “effect on cell number”) ([1]; dose-response (FIG. 1a)) was “increased osteoblast proliferation, but the effect was smaller and only significant at 10^-8 M”.

In the case of “Rat calcitonin: rat calcitonin peptide, comparator (CGNLSTCMLGTYTQDLNKFHTFPQTSIGVGAP; ends and bridges not checked; cysteine pairing not given here; UniProt P01257 85-116, looked up) [reference compound]”, the eroded surface (calvariae of adult mice) is reported as “reduced eroded surface to a similar extent to amylin”, the “mineralized bone area increase” value (calvariae of adult mice; non-significant) is reported as 4% and the “effect on cell number” value ([1]; 10^-9 -10^-7 M) is reported as “without effect”.

For “amylin: 37-amino acid peptide cosecreted with insulin from pancreatic beta cells; species not printed at place (rat amylin per FIG. 1-4 legends)”, the “DNA synthesis assessed by thymidine incorporation” value [3] was “sustained increase in DNA synthesis”, the “indices of bone formation compared to control” value (mouse calvaria; [4]) was “significant increases in all indices of bone formation” and the “indices of bone resorption compared to control” value (mouse calvaria; [4]) was “significant decreases in indices of bone resorption”. The osteoid area (mouse calvaria; systemic, subcutaneous, 10^-8 M, mean, per mm calvarial length, control 0.0005) was 0.0018 mm^2, the osteoclast surface (mouse calvaria; systemic, subcutaneous, 10^-8 M, mean, per mm calvarial length, control 0.094) was 0.019 mm and the eroded surface (mouse calvaria; systemic, subcutaneous, 10^-8 M, mean, per mm calvarial length, control 0.294) was 0.081 mm. The osteoblast surface (mouse calvaria; systemic, subcutaneous, 10^-8 M, mean, per mm calvarial length, control 0.85) was 1.76 mm, the osteoclast number (mouse calvaria; systemic, subcutaneous, 10^-8 M, mean, per mm calvarial length, control 3.6) was 1.2 and the osteoblast number (mouse calvaria; systemic, subcutaneous, 10^-8 M, mean, per mm calvarial length, control 73.6) was 147.5. The bone resorption (calvariae of adult mice; [5]) was “decreases in bone resorption of comparable magnitude”, the “indices of bone formation” value (calvariae of adult mice; [5]) was “two- to three-fold increases” and the “cell number over time” value ([2]; time-course 6 to 48 hours (FIG. 2)) was “increased in amylin-treated cells from 6 to 48 hours”. The “stimulation of osteoblast proliferation” value ([1]; actively growing cells (2% fetal calf serum, FIG. 1b)) was “also observed in actively growing cells” and the “effect on cell number” value ([1]; dose-response (FIG. 1a)) was “substantial, dose-related increase in cell number”.

Molecule parathyroid hormone has a reduced cell numbers ([1]; 10^-8 M, at 24 hours) of 18%.

With “rat amylin: rat form of the 37-amino acid peptide amylin (KCNTATCATQRLANFLVRSSNNLGPVLPPTNVGSNTY; not fully specified (C-terminus, bridges); cysteine pairing not given here; UniProt P12969 38-74, looked up)” the “Osteoblast Numbers after 24 h culture” value ([2]; 10^-9 M, control 4.2 ± 0.6) was 5.9 ± 0.8 x10^4 cells/well.

salmon calcitonin was tested, and the “effect on cell number” value ([1]; 10^-7 M) was “without effect”.
